Experimental data as given in US20260201008A1, “SECRETIN-DERIVED GLP1R SELECTIVE AGONISTS” (GUBRA A/S, priority 2023, published 2026).
Numbered stars: 1 amine (or outer) side, 2 acyl side, 3 side chain; on linkers, the order of the positions; unused ones are H or OH. Square brackets hold non-standard residues; d marks the D form. Side chains are listed from the residue outwards. Peptide text beside a SMILES is read from it. * marks the point of attachment. C20 diacid = O=C(O)CCCCCCCCCCCCCCCCCCC(=O)*; γGlu = O=C(O)[C@H](CCC(=O)[*:2])N[*:1]; AEEA = NCCOCCOCC(=O)O; Aib = CC(C)(N)C(=O)O

What was measured:
GLP1R = GLP1R (Homo sapiens, UniProt P43220); assay: hGLP1R potency, cAMP accumulation in CHO-K1 cells stably overexpressing hGLP1R; type: cell-based; parameters: host or cells: CHO-K1; conditions: for EC50: cAMP accumulation, CHO-K1 cells overexpressing hGLP1R, read-out: hGLP1R pEC50 (converted); for SCTR EC50/GLP1R EC50 ratio: selectivity for hGLP1R over hSCTR, cAMP accumulation in CHO-K1 cells
Chain of GLP1R (P43220 24-463): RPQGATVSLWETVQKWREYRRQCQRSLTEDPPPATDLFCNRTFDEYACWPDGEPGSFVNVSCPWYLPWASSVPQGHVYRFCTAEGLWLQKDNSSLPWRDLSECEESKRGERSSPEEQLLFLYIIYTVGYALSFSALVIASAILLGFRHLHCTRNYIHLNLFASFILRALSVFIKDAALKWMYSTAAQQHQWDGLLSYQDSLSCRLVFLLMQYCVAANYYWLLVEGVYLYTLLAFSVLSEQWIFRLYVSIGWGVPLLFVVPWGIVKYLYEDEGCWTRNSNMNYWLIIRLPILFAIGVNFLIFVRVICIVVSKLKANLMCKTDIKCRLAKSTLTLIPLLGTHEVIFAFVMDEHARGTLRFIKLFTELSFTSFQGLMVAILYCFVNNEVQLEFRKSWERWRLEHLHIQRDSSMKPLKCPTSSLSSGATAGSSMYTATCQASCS
Outline: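 Potency reflects cAMP accumulation measured by time-resolved fluorescence energy transfer after a 30 min room-temperature stimulation in IBMX-containing (0.5 mM) DPBS with casein. Purified peptides were tested in duplicate over eleven threefold dilutions, and EC50 was obtained from sigmoid concentration-response fitting.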

SCTR = SCTR (Homo sapiens, UniProt P47872); assay: hSCTR potency, cAMP accumulation in CHO-K1 cells stably overexpressing hSCTR; type: cell-based; parameters: alternatively Euroscreen ES-712-AF; FAST-0161L; host or cells: CHO-K1; conditions: cAMP accumulation, CHO-K1 cells overexpressing hSCTR; read-out: hSCTR pEC50 (converted)
Chain of SCTR (P47872 23-440): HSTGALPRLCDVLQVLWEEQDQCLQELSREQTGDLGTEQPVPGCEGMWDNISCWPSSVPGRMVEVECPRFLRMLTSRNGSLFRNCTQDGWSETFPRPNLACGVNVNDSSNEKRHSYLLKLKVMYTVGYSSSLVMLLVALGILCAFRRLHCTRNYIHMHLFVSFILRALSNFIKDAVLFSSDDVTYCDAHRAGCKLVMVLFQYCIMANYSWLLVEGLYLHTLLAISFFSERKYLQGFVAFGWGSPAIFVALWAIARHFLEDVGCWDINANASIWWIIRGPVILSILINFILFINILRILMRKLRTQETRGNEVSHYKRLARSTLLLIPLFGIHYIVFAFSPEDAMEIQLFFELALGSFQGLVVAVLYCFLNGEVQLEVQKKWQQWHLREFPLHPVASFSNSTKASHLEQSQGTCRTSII
Outline: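 Potency reflects cAMP accumulation after 30 min agonist exposure at room temperature in hSCTR-expressing CHO-K1 cells, with 0.5 mM IBMX present to block phosphodiesterase. EC50 was derived by nonlinear regression.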

[1] = Fibril formation of crude library peptides (Thioflavin T); type: physicochemical; parameters: key: average ThT fluorescence emission at 480 nm (ex 450 nm), raw units; conditions: Physical stability of peptides
Outline: (§1)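 Values reflect mean ThT emission (ex 450, em 480 nm) over 72 h at 40° C, read every 10 min after 5 min shaking at 700 rpm, plus a single initial absorbance at 600 nm for turbidity. Peptides were at 267 μM, pH 4.0 acetate or pH 7.0 phosphate (50 mM), with 4 μM ThT.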

[2] = Turbidity of crude library peptides (absorbance at 600 nm); type: physicochemical; conditions: Physical stability of peptides
Outline: as §1

EC50 (GLP1R) [nM] | SCTR EC50/GLP1R EC50 ratio (GLP1R) | EC50 (SCTR) [nM] | Fibril formation [1] | Turbidity (pH 7) [2] | SMILES
0.00794 | 41476 | 316 | 4253 | 0.08 | CC(C)C[C@H](NC(=O)[C@H](Cc1ccccc1)NC(=O)[C@H](CCCNC(=N)N)NC(=O)[C@H](CCC(N)=O)NC(=O)[C@H](CC(C)C)NC(=O)C(C)(C)NC(=O)[C@H](C)NC(=O)[C@H](CCC(=O)O)NC(=O)[C@H](CCC(=O)O)NC(=O)[C@H](CCCCNC(=O)COCCOCCNC(=O)COCCOCCNC(=O)CC[C@H](NC(=O)CCCCCCCCCCCCCCCCCCC(=O)O)C(=O)O)NC(=O)[C@H](CC(C)C)NC(=O)[C@H](Cc1ccc(O)cc1)NC(=O)[C@H](CO)NC(=O)[C@@H](NC(=O)[C@H](CC(=O)O)NC(=O)[C@H](CO)NC(=O)[C@@H](NC(=O)[C@H](Cc1ccccc1)NC(=O)[C@@H](NC(=O)CNC(=O)[C@H](CCC(=O)O)NC(=O)[C@H](C)NC(=O)[C@@H](N)Cc1c[nH]cn1)[C@@H](C)O)[C@@H](C)O)C(C)C)C(=O)N[C@@H](CCC(=O)O)C(=O)N[C@@H](Cc1c[nH]cn1)C(=O)N[C@@H](CC(C)C)C(=O)N[C@H](C(N)=O)C(C)C [compound 166] (H-HAEGTFTSDVSYLK([AEEA-AEEA-γGlu-C20 diacid])EEA[Aib]LQRFLEHLV-NH2)
0.00398 | 42658 | 158 | 10893 | 0.08 | CC(C)C[C@H](NC(=O)[C@H](Cc1ccccc1)NC(=O)[C@H](CCCNC(=N)N)NC(=O)[C@H](CCC(N)=O)NC(=O)[C@H](CCC(N)=O)NC(=O)[C@H](C)NC(=O)[C@H](C)NC(=O)C(C)(C)NC(=O)[C@H](CCC(=O)O)NC(=O)[C@H](CCCCNC(=O)COCCOCCNC(=O)COCCOCCNC(=O)CC[C@H](NC(=O)CCCCCCCCCCCCCCCCCCC(=O)O)C(=O)O)NC(=O)[C@H](CC(C)C)NC(=O)[C@@H](NC(=O)[C@H](CO)NC(=O)[C@@H](NC(=O)[C@H](CC(=O)O)NC(=O)[C@H](CO)NC(=O)[C@@H](NC(=O)[C@H](Cc1ccccc1)NC(=O)[C@@H](NC(=O)CNC(=O)[C@H](CCC(=O)O)NC(=O)C(C)(C)NC(=O)[C@@H](N)Cc1c[nH]cn1)[C@@H](C)O)[C@@H](C)O)C(C)C)[C@@H](C)O)C(=O)N[C@@H](CCC(=O)O)C(=O)N[C@@H](Cc1c[nH]cn1)C(=O)N[C@@H](CC(C)C)C(=O)N[C@H](C(N)=O)C(C)C [compound 88] (H-H[Aib]EGTFTSDVSTLK([AEEA-AEEA-γGlu-C20 diacid])E[Aib]AAQQRFLEHLV-NH2)
0.0631 | 1256 | 79.4 | 143374 | 0.63 | CC[C@H](C)[C@H](NC(=O)[C@H](Cc1ccccc1)NC(=O)[C@H](CCCNC(=N)N)NC(=O)[C@H](CCC(N)=O)NC(=O)[C@H](CC(C)C)NC(=O)[C@H](C)NC(=O)[C@H](C)NC(=O)CNC(=O)[C@H](CCC(=O)O)NC(=O)[C@H](CC(C)C)NC(=O)[C@H](CC(C)C)NC(=O)[C@H](Cc1c[nH]c2ccccc12)NC(=O)[C@H](CO)NC(=O)[C@@H](NC(=O)[C@H](CC(=O)O)NC(=O)[C@H](CO)NC(=O)[C@@H](NC(=O)[C@H](Cc1ccccc1)NC(=O)[C@@H](NC(=O)CNC(=O)[C@H](CCC(=O)O)NC(=O)C(C)(C)NC(=O)[C@@H](N)Cc1c[nH]cn1)[C@@H](C)O)[C@@H](C)O)[C@@H](C)CC)C(=O)N[C@@H](CCC(N)=O)C(=O)N[C@@H](Cc1c[nH]c2ccccc12)C(=O)N[C@@H](CC(C)C)C(=O)N[C@H](C(N)=O)C(C)C [compound 118] (H-H[Aib]EGTFTSDISWLLEGAALQRFIQWLV-NH2)
